The target in series [1] is T1, Ba/F3-FL-TYK2-P760L cells (Homo sapiens, UniProt P29597, P760L, cells depend on it).
T1 construct: BaF3-FL-T2P760L (nM)
Briefly: Anti-proliferative assay, Ba/F3-FL-TYK2-P760L cells (Cell-Titer Glo). It is filed as cell-based. To be noted: 72 h, read-out: BaF3-FL-T2P760L IC50. The method in brief:
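Compound exposure ran 72 h at 37 °C in 5% CO2 across nine 3-fold concentrations from a 20 μM top dose, added 24 h after seeding 2000 cells/well.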

The target of series [2] is T2, TYK2-JH2 domain (Homo sapiens, UniProt P29597).
T2 construct: IC50 on JH2 domain activity (nM)
T2 sequence (P29597 589-875 limits assumed): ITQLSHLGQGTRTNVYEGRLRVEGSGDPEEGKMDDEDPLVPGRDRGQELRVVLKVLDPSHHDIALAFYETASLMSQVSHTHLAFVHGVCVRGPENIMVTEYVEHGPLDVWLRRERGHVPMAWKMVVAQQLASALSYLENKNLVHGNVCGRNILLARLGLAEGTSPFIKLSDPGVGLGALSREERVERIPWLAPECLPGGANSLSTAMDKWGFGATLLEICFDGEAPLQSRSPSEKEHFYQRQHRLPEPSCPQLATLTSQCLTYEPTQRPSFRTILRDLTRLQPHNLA
Briefly: Binding activity test for JH2 domain of TYK2 (Tb-antibody/tracer FRET). As for the experimental part: Binding Activity Test for […] Domain of JAK1 and TYK2 The compounds are prepared in DMSO for 200× top dose, then serial dilute it with 27-fold for 3 more points. Add 8 μL/well in echo source plate, echo will add 75 nL/well with 3-fold serial dilution for 11 points in assay plate. 75 nL DMSO for high control and low control. […] For low control, add 5 μL/well assay buffer. And then spin down at 1000 rpm and centrifuge for 30 seconds. After enzyme system prepared, add 5 μL of Tb-antibody solution into each wells of assay plate. Spin down at 1000 rpm and centrifuge for 30 sec. After Tb-antibody added, also add 5 μL of tracer into the assay plate. Spin down at 1000 rpm and centrifuge for 30 sec. Incubate for 60 mins at 25° C. firstly and then continue to incubate the plate at 4° C. overnight. Read by envision in FRET mode. The Luminescence value was recorded by a multi-label reader Envision (PerkinElmer).

Series [3] in a line: Microsomal metabolic stability assay. The following applies: pH 7.4, 0.5 mg/mL protein, 1 μM compound. It is filed as in vitro ADME. In a few lines:
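Parent loss was tracked by LC/MS/MS at 0, 5, 15, 30 and 45 min, with half-life derived from the ln(% remaining)–time slope. Incubation at 37 °C, pH 7.4 phosphate/EDTA buffer: 0.5 mg/mL microsomes, 1 μM compound, NADPH-regenerated (2 mM).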

The mark [4] stands for this setting: dog liver microsomes, read-out: Dog LM Clint.
[5] abbreviates: dog liver microsomes, read-out: Dog LM T½.
Where [6] appears, read: human liver microsomes, read-out: Human LM Clint.
The mark [7] stands for this setting: human liver microsomes, read-out: Human LM T½.
Where [8] appears, read: rat liver microsomes, read-out: Rat LM Clint.
The mark [9] stands for this setting: rat liver microsomes, read-out: Rat LM T½.

We go through 16 compounds from patent US20250115597A1, “TYK2 INHIBITORS AND COMPOSITIONS AND METHODS THEREOF” (LYNK PHARMACEUTICALS CO. LTD., priority 2021, published 2025).

What is called IC50 is the concentration that inhibits the measured activity by half. A higher IC50 goes with weaker potency.

Molecules are shown by their SMILES. Where two headings read alike, the source gives them in different places.

T1 sequence (P29597 whole entry P760L): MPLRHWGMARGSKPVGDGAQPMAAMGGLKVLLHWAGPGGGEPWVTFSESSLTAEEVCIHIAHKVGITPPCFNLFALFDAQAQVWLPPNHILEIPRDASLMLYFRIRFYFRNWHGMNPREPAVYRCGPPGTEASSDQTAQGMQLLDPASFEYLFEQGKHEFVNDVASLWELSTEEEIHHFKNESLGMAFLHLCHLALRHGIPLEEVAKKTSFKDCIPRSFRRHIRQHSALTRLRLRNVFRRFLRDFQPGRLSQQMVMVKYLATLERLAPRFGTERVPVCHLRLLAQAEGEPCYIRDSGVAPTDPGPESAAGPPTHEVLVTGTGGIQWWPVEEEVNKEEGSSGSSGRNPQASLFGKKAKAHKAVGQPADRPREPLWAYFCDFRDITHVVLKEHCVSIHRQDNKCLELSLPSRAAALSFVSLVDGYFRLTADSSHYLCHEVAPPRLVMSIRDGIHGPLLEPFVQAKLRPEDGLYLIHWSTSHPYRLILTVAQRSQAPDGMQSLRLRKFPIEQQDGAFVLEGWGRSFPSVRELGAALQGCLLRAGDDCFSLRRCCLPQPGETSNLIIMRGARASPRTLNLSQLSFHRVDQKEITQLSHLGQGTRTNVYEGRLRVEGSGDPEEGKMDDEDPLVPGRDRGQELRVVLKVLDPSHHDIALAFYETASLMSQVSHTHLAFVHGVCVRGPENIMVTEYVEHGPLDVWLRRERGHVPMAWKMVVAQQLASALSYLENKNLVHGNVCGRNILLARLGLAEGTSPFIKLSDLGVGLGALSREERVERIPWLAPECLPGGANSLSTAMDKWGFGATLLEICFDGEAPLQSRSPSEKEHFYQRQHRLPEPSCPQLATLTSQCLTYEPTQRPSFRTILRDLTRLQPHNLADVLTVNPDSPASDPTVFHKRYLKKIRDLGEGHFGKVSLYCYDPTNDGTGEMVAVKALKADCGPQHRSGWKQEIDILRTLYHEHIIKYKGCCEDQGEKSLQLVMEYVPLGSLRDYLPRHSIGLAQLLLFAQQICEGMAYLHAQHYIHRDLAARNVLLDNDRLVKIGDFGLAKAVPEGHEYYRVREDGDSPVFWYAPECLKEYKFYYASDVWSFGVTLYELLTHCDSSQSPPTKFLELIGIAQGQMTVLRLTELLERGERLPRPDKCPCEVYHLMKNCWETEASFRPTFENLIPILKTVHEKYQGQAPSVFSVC

With `[2H]C([2H])([2H])NC(=O)c1nnc(NC(=O)C2CC2)cc1Nc1nn(CC)c2ccn(CC(F)(F)F)c(=O)c12` [Example 218, 6-(Cyclopropanecarboxamido)-4-((1-ethyl-4-oxo-5-(2,2,2-trifluoroethyl)-4,5-dihydro-1H-pyrazolo[4,3-c]pyridin-3-yl)amino)-N-(methyl-d3)pyridazine-3-carboxamide], the GI50 in series [1] was determined as 0.0686 µM. The compound further showed an IC50 in series [2] of 0.000343 µM.
Consider `[2H]C([2H])([2H])NC(=O)c1cnc(NC(=O)C2CC2)cc1Nc1ccc2nc(C)n(CC)c2c1OC` [Example 168, 6-(Cyclopropanecarboxamido)-4-((1-ethyl-7-methoxy-2-methyl-1H-benzo[d]imidazol-6-yl)amino)-N-(methyl-d3)nicotinamide], for which, in series [1], the GI50 was found to be 0.728 µM. This compound also came in with an IC50 in series [2] of 0.00215 µM.
Take `[2H]C([2H])([2H])NC(=O)c1cnc(NC(=O)C2CC2)cc1Nc1cn(C)c2ncn(C(C)C(F)(F)F)c(=O)c12` (stereo not shown) [Example 217, 6-(Cyclopropanecarboxamido)-N-(methyl-d3)-4-((7-methyl-4-oxo-3-(1,1,1-trifluoropropan-2-yl)-4,7-dihydro-3H-pyrrolo[2,3-d]pyrimidin-5-yl)amino)nicotinamide]: the GI50 in series [1] is 0.205 µM. The IC50 in series [2] came out at 0.00131 µM.
On to `[2H]C([2H])([2H])NC(=O)c1cnc(NC(=O)C(F)(F)F)cc1Nc1ccc2cnn(CC)c2c1OC` [Example 271, 4-((1-Ethyl-7-methoxy-1H-indazol-6-yl)amino)-N-(methyl-d3)-6-(2,2,2-trifluoroacetamido)nicotinamide], for which, in series [1], the GI50 worked out at 2.61 µM. Also, the IC50 in series [2] came out at 0.0256 µM.
`CCn1ncc2ccc(Nc3cc(NC(=O)C4CC4)ncc3Cl)c(OC)c21` [Example 272, N-(5-chloro-4-((1-ethyl-7-methoxy-1H-indazol-6-yl)amino)pyridin-2-yl)cyclopropanecarboxamide]: the GI50 in series [1] was 4.76 µM. Moreover, the IC50 in series [2] stood at 0.138 µM.
For the compound `CCc1nn(C)c2ccc(Nc3cc(NC(=O)C4CC4)ncc3C(=O)OC)c(OC)c12` [Example 149, Methyl 6-(cyclopropanecarboxamido)-4-((3-ethyl-4-methoxy-1-methyl-1H-indazol-5-yl)amino)nicotinate], the GI50 in series [1] is 0.732 µM. Also, the IC50 in series [2] came to 0.0628 µM.
With `[2H]C([2H])([2H])NC(=O)c1cnc(NC(=O)C2CC2)cc1Nc1ccn2ncc(CCC)c2c1OC` [Example 215, 6-(Cyclopropanecarboxamido)-4-((4-methoxy-3-propylpyrazolo[1,5-a]pyridin-5-yl)amino)-N-(methyl-d3)nicotinamide], the GI50 in series [1] was determined as 0.159 µM. Besides, the half-inhibitory concentration (IC50) in series [2] came out at 0.000532 µM.
With `[2H]C([2H])([2H])NC(=O)c1cnc(NC(=O)C2CC2)cc1Nc1cn(CC)c2ncn(CC(F)(F)F)c(=O)c12` [Example 212, 6-(Cyclopropanecarboxamido)-4-((7-ethyl-4-oxo-3-(2,2,2-trifluoroethyl)-4,7-dihydro-3H-pyrrolo[2,3-d]pyrimidin-5-yl)amino)-N-(methyl-d3)nicotinamide], in series [1], the GI50 came out at 0.244 µM. In series [2], the IC50 is 0.000601 µM.
On to `[2H]C([2H])([2H])NC(=O)c1cnc(NC(=O)C2CC2)cc1Nc1cc(F)c2cnn(CC)c2c1OC` [Example 147, 6-(Cyclopropanecarboxamido)-4-((1-ethyl-4-fluoro-7-methoxy-1H-indazol-6-yl)amino)-N-(methyl-d3)nicotinamide], for which, in series [1], the GI50 is 0.175 µM. Also, the microsomal CLint at 1 μM in series [3] (setting [4]) is 54.4 µL/min/mg; in series [3] (setting [6]), 59 µL/min/mg; in series [3] (setting [8]), 124 µL/min/mg. In addition, the half-life at 1 μM is 25.5 min in series [3] (setting [5]), 23.5 min in series [3] (setting [7]) and 11.1 min in series [3] (setting [9]).
With `[2H]C([2H])([2H])NC(=O)c1cnc2cc1Nc1cc(cc(-c3ncn(C)n3)c1OC)COCc1nc(ccc1F)N2` [Example 66, 18-Fluoro-10-methoxy-N-(methyl-d3)-11-(1-methyl-1H-1,2,4-triazol-3-yl)-15-oxa-2,4,8,21-tetraazatetracyclo[15.3.1.1^{3,7}.1^{9,13}]tricosa-1(20),3,5,7(23),9(22),10,12,17(21),18-nonaene-6-carboxamide], the GI50 in series [1] is 0.0421 µM. The microsomal CLint at 1 μM in series [3] (setting [4]) was 23.1 µL/min/mg; in series [3] (setting [6]), 6.48 µL/min/mg; in series [3] (setting [8]), 6.84 µL/min/mg. Moreover, the half-life at 1 μM in series [3] (setting [5]) amounted to 59.9 min; in series [3] (setting [7]), 214 min; in series [3] (setting [9]) it was 203 min.
Turning to `[2H]C([2H])([2H])NC(=O)c1cnc(Nc2cccc(F)n2)cc1Nc1cn(C)c2c(Cl)cn(CC)c(=O)c12` [Example 161, 4-((7-Chloro-5-ethyl-1-methyl-4-oxo-4,5-dihydro-1H-pyrrolo[3,2-c]pyridin-3-yl)amino)-6-((6-fluoropyridin-2-yl)amino)-N-(methyl-d3)nicotinamide], the GI50 in series [1] stood at 0.0216 µM. Moreover, the microsomal CLint at 1 μM in series [3] (setting [4]) came out at 27.2 µL/min/mg; in series [3] (setting [6]) it was 74.6 µL/min/mg; in series [3] (setting [8]), 63.5 µL/min/mg. The half-life at 1 μM was 51 min in series [3] (setting [5]), 18.6 min in series [3] (setting [7]) and 21.8 min in series [3] (setting [9]).
As to `[2H]C([2H])([2H])NC(=O)c1nnc2cc1Nc1cc(cc(-c3ccn(C)n3)c1OC)COCc1nc(ccc1F)N2` [Example 74, 18-Fluoro-10-methoxy-N-(methyl-d3)-11-(1-methyl-1H-pyrazol-3-yl)-15-oxa-2,4,5,8,21-pentaazatetracyclo[15.3.1.1^{3,7}.1^{9,13}]tricosa-1(20),3,5,7(23),9(22),10,12,17(21),18-nonaene-6-carboxamide], the GI50 in series [1] turned out to be 0.0935 µM. The microsomal CLint at 1 μM in series [3] (setting [4]) stood at 108 µL/min/mg; in series [3] (setting [6]), 17.5 µL/min/mg; in series [3] (setting [8]), 161 µL/min/mg. In addition, the values for the half-life at 1 μM in series [3] (setting [5]), in series [3] (setting [7]) and in series [3] (setting [9]) were 12.9 min, 79.4 min and 8.61 min, respectively.
As for `[2H]C([2H])([2H])NC(=O)c1cnc(NC(=O)C2CC2)cc1Nc1csc2cnn(C(C)C(F)(F)F)c(=O)c12` (stereo not shown) [Example 185, 6-(Cyclopropanecarboxamido)-N-(methyl-d3)-4-((4-oxo-5-(1,1,1-trifluoropropan-2-yl)-4,5-dihydrothieno[2,3-d]pyridazin-3-yl)amino)nicotinamide], the GI50 in series [1] was 0.428 µM. For the same compound, the microsomal CLint at 1 μM in series [3] (setting [4]), in series [3] (setting [6]) and in series [3] (setting [8]) was less than 11.5 µL/min/mg each time. In addition, the half-life at 1 μM in series [3] (setting [5]), in series [3] (setting [7]) and in series [3] (setting [9]) was greater than 120 min in each case.
`[2H]C([2H])([2H])NC(=O)c1cnc(Nc2cccc(C#N)n2)cc1Nc1cn(C)c2c(Cl)cn(CC)c(=O)c12` [Example 163, 4-((7-Chloro-5-ethyl-1-methyl-4-oxo-4,5-dihydro-1H-pyrrolo[3,2-c]pyridin-3-yl)amino)-6-((6-cyanopyridin-2-yl)amino)-N-(methyl-d3)nicotinamide]: the GI50 in series [1] came to 0.0367 µM. The microsomal CLint at 1 μM in series [3] (setting [4]) was found to be 12.1 µL/min/mg; in series [3] (setting [6]), 82.1 µL/min/mg; in series [3] (setting [8]), 101 µL/min/mg. Also, the half-life at 1 μM in series [3] (setting [5]) was 114 min; in series [3] (setting [7]) it was 16.9 min; in series [3] (setting [9]), 13.7 min.
Consider `CNC(=O)c1cnc(NC(=O)C2CC2)cc1Nc1csc2c(Cl)cn(C)c(=O)c12` [Example 171, 4-((7-Chloro-5-methyl-4-oxo-4,5-dihydrothieno[3,2-c]pyridin-3-yl)amino)-6-(cyclopropanecarboxamido)-N-methylnicotinamide], for which the GI50 in series [1] worked out at 0.105 µM. Also, the microsomal CLint at 1 μM in series [3] (setting [4]) stood at 2.94 µL/min/mg; in series [3] (setting [6]) it was 12.8 µL/min/mg; in series [3] (setting [8]), 16.9 µL/min/mg. For the same compound, the half-life at 1 μM in series [3] (setting [5]) was determined as 471 min; in series [3] (setting [7]) it was 109 min; in series [3] (setting [9]) it was 81.9 min.
Consider `CNC(=O)c1cnc(Nc2ccc(F)cn2)cc1Nc1cn(C)c2ccn(C)c(=O)c12` [Example 11, 4-((1,5-Dimethyl-4-oxo-4,5-dihydro-1H-pyrrolo[3,2-c]pyridin-3-yl)amino)-6-((5-fluoropyridin-2-yl)amino)-N-methylnicotinamide], for which the GI50 in series [1] worked out at 0.124 µM. In addition, the microsomal CLint at 1 μM in series [3] (setting [6]) is 74 µL/min/mg; in series [3] (setting [8]), 30.6 µL/min/mg. Besides, the half-life at 1 μM in series [3] (setting [7]) is 18.7 min; in series [3] (setting [9]), 45.3 min.
